Experimental data from patent US7527971B2, “Adult stem cell lines” (Vitro Diagnostics, Inc., priority 2004, dated 2009).
Ends that are not written are not given here.

Experiments:
VIT4-G9 cells [1] = assay: Insulin secretion from VIT4-G9 cultures after growth/differentiation conditions; type: cell-based, human
Protocol: ILCC were examined to determine the level of insulin content and its secretion by use an immunoassay specific to human insulin (Linco Research, Catalog Number EZHI-14K). Since the growth medium contains recombinant human insulin, tissues were extensively washed with PBS prior to determination of secretion. ILCC were acutely maintained in a physiological saline solution (140 mM NaCl, 5 mM KCl, 5 mM CaCl2, 0.5% BSA, 1 mM sodium pyruvate, 2 mM glucose, and 10 mM HEPES, pH 7.4). […] The control solution contained 2 mM glucose, the elevated glucose solution was identical but contained 20 mM glucose, and the elevated K^+ solution contained 50 mM K^+, while the other constituents were identical to the control solution. The physiological saline solution was collected following centrifugation (10 minutes at 470×g) and frozen at −20° C. for later analysis. The remaining ILCC were lyzed in 10 mM Tris, 1 mM EDTA and 10% glycerol; the pellet was extracted overnight at 4° C. in 70% ethanol, 0.18 mM HCl and the extract was dried using Model DNA 110 Speed Vac (Savant, Inc.). The dried extract was reconstituted in 100 μl PBS prior to assay for insulin content. […] For example, glucose-stimulated insulin secretion requires expression of functional glucose transporter protein and glucokinase in addition to insulin. […]

VIT1 cells [2] = assay: Induction of ILCC, insulin and Ep-CAM in VIT1 cells by GLP-1 (IHC); type: cell-based, human
Protocol: VIT1 cells were cultured and expanded through multiple passages as described in Example 2, “Cell Growth Analysis”. The culture medium used for expansion was VitroPlus II, (Vitro Diagnostics, Inc, Catalog Number VC03014) containing 10 nM GLP-1 (1-37) (Bachem, Catalog Number H-5552). Different cultures were expanded for 11 to 20 days encompassing two to five passages prior to immunohistochemical determination of insulin or Ep-CAM. A negative control culture that was expanded in VitroPlus II without added GLP-1 through 6 passages (24 days) prior to IHC determination of insulin. Insulin and Ep-CAM presence within these cultures was determined by fixation of the cultured cells in 1% glutaraldehyde, overnight incubation with insulin MAB (Sigma Chemical Co, Catalog Number I2018) at 1/1000 dilution in PBS or Ep-CAM, (Epithelial Specific Antigen) MAB (Biogenesis, Catalog Number 4240-4009) at 1/200 dilution in PBS followed by washout and incubation with an HRP-conjugated secondary antibody (Goat-anti-mouse-HRP (Jackson ImmunoResearch Laboratories, Inc., Catalog Number 115-035-062) at 37° C. for 30 minutes. Following washout of the secondary antibody, the fixed cells were then incubated for 15 minutes in diaminobenzidine (Sigma Chemical Co, Catalog Number D-4293), and the stained cultures were examined by phase-contrast microscopy and photographed. […]

[3] = test system: primary cultures of dispersed human pancreatic cells; assay: Effect of HGF on ILCC growth and morphology in primary cultures; type: cell-based
Protocol: The effects of hepatocyte growth factor (HGF; PeproTech, Inc. Catalog Number 100-39) were determined by addition to the growth medium described above at a final concentration of 30 ng/ml. […] The acute effects of HGF on ILCC growth and morphology were determined and longer-term experiments were conducted as follows. The sample consisted of a cryopreserved, non-settled fraction of cells resulting from sub-culture of ILCC from the first passage of the culture of human pancreatic dispersed cells prepared as described above. The frozen cells were rapidly thawed, cryopreservative was washed out and the cells were plated at 10,000/cm^2 during the second passage. Cultures were exposed to 30 ng/ml HGF or control medium without added HGF and the cultures were expanded through 4 passages. Thereafter, both the control and HGF cultures were maintained and expanded through 8 passages using growth medium without added HGF. The number of ILCC in these cultures was determined by microscopic inspection.
To determine if ILCC cultures were affected by environmental conditions, the effect of HGF exposure was determined as described above (See: Methods). HGF is known to be mitogenic to beta cells, increases beta cell mass and total insulin production in vivo (Gracia-Ocana, et. al, 2000). HGF is also a known survival factor for a variety of cells (Dai, et. al, 2003). […]

VIT1 cells [4] = assay: IHC analysis of insulin or Ep-CAM positive cells in VIT1 culture exposed to nicotinamide; type: cell-based, human; conditions: 10 mM nicotinamide, 5-day exposure
VIT4-G9 cells [5] = assay: Effect of nicotinamide on prevalence of ILCC in VIT4-G9 cultures; type: cell-based, human; conditions: 10 mM nicotinamide
From the text: A general principle of developmental cell biology is that cellular differentiation and growth are at least partially exclusive of each other. High rates of cellular proliferation usually occur in the absence of differentiation, while differentiation usually requires quiescence or low rates of cell proliferation. Initial observations of the clonal cell line VIT4-G9 were consistent with this concept since pancreatic hormone-containing ILCC only appeared at later stages of culture following slower cell growth as a consequence of confluence and possibly contact inhibition.

For “glucagon-like peptide 1 (HAEGTFTSDVSSYLEGQAAKEFIAWLVKGR; ends and bridges not checked; UniProt P01275 98-127, looked up) [GLP-1, GLP-1 (1-37) (Bachem, Catalog Number H-5552)]”, the “Glucose-stimulated insulin secretion: requirement during growth phase” value (VIT4-G9 cells [1]; GLP-1 in VitroPlus II, 5 days) was “necessary”, the “Ep-CAM expression by IHC” value (VIT1 cells [2]; 10 nM GLP-1) was “induced” and the “Reduction of ILCC frequency in negative control culture lacking GLP-1” value (VIT1 cells [2]; 10 nM GLP-1 in VitroPlus II versus no GLP-1) was “thousand-fold”.
hepatocyte growth factor [HGF] was tested, and the “Increase in number of ILCC” value ([3]; 30 ng/ml HGF during passages 2 through 4, counted at early pass 7) was about 5 fold and the “Morphology of ILCC” value ([3]; 30 ng/ml HGF, short time of exposure, reversed when HGF removed) was “shift in the morphology of ILCC from larger islets containing small cells to more loosely attached, smaller islets composed of larger cells”.
With `NC(=O)c1cccnc1` [nicotinamide] the “Glucose-stimulated insulin secretion: requirement in differentiation phase” value (VIT4-G9 cells [1]; 10 mM nicotinamide in 0.5% FBS VitroPlus II, 6 days) was “necessary”, the “Number of insulin or Ep-CAM positive cells by IHC” value (VIT1 cells [4]) was “did not appear to change” and the “Increase in prevalence of ILCC” value (VIT4-G9 cells [5]) was “about 5 fold”.
